Assay results published in US4952234A, “Imidazoledione compounds useful as herbicides” (Sankyo Company Limited, priority 1985, dated 1990).

Assays:
mice = details: mouse, in vivo, iv, 100 mg/kg
Experimental: A solution of Substance No. 51262 was administered intravenously to mice in an amount of 100 mg/kg bodyweight.

various weeds = test: Herbicidal activity against weeds, pre- and post-emergence (summary statement); type: in vivo
Solubility = type: physicochemical
Excerpt: (j) solubility: soluble in water, methanol and ethanol; insoluble in ethyl acetate and acetone;

Komatsuna seeds = test: Inhibitory effect on the germination of Komatsuna seeds; type: in vivo, Brassica rapa (L) var. Komatsuna Hara; details: Brassica rapa, 72 h; 28° C. for 3 days; read-out: minimum inhibitory concentration against the germination of Komatsuna seeds
Experimental: Sterilized cotton was placed on the bottom of a test tube (10 mm×100 mm) to a height of about 5 mm, and the cotton was then soaked with 0.5 ml of either distilled water or of an aqueous solution containing various concentrations of Substance No. 51262. About 10 seeds of the plant Komatsuna [Brassica rapa (L) var. Komatsuna Hara] were placed into each test tube and allowed to stand at 28° C. for 3 days to determine the inhibitory concentration of Substance No. 51262, assessed by the presence or absence of germination.

[1] = system: paddy field rice, soybeans, corn, cotton and purple nutsedge; test: Plant growth retardation; type: in vivo
Excerpt: (§1) A plastic pot was filled with upland soil to provide a surface area of soil of 150 cm^2. Seeds of paddy field rice, soybeans corn and cotton were sowed, Tubers of the perennial weed, purple nutsedge (Cyperus rotundus) were then planted into each pot and the seeds and tubers were covered with the same soil. The pots were placed in a greenhouse for 10 days, after which aqueous solutions of Substance No. 51262 (prepared as described hereafter in Example 11) to the required concentrations were mixed with 0.03% v/v of the spreader Gramin S. 5 ml of the resulting solution were sprayed onto each pot. The growth of the resulting plants were compared after 2 weeks with a control which had not been so treated.

purple nutsedge = test: Plant growth retardation, purple nutsedge; type: in vivo, Cyperus rotundus; details: 500 ppm; after 2 weeks vs untreated control
Excerpt: as §1

**Q.** Which abnormalities observed (mice) does the source give for `O=C1NC(=O)[C@@]2(N1)O[C@H](CO)[C@@H](O)[C@H]2O` [Substance No. 51262] here?
**A.** Its abnormalities observed is “no abnormalities were detected”.

**Q.** And the herbicidal activity (various weeds)?
**A.** Its herbicidal activity is “excellent herbicidal activity”.

**Q.** What about the solubility (Solubility; acetone) of the same compound?
**A.** Its solubility is “insoluble”.

**Q.** What about the solubility (Solubility; ethanol) of the same compound?
**A.** The solubility was “soluble”.

**Q.** And the solubility (Solubility; ethyl acetate)?
**A.** The solubility was “insoluble”.

**Q.** What about the solubility (Solubility; methanol) of the same compound?
**A.** The solubility was “soluble”.

**Q.** And the solubility (Solubility; water)?
**A.** Its solubility is “soluble”.

**Q.** And the minimal effective concentration (Komatsuna seeds)?
**A.** The minimal effective concentration was 3.13 µg/mL.

**Q.** What about the growth retardation ([1]; 125 ppm, all plants, after 2 weeks vs untreated control) of the same compound?
**A.** Its growth retardation is “about 50%”.

**Q.** And the plant growth retardation ([1]; summary statement)?
**A.** The plant growth retardation was “can retard plant growth without killing the plants”.

**Q.** What about the “growth inhibition of the shoot and rhizome” value (purple nutsedge) of the same compound?
**A.** Its value is “almost complete growth inhibition”.
